12 compounds from US4406908A, “Tetrazolylcoumarin derivatives and antiallergic compositions containing the same” (Kakenyaku Kako Co., Ltd., priority 1980, dated 1983) can be followed below.

The LD50 is the dose at which mortality reaches 50%.

Structures are written as SMILES. Where only a bound is given, the exact number is not on record here.

The nature of one data set: acute toxicity in mice. Particulars: mouse, in vivo, po, orally, suspended in 10% gum arabic solution, 6 days observation, method of Litchfield-Wilcoxon. As to the method:
With respect to the 3-(1H-tetrazol-5-yl)-coumarin derivatives obtained in Examples 1 to 12, there was tested acute toxicity in mice.
After normal female Slc: ddy mice 4 weeks old were purchased and fed preliminarily in this lavoratory for a week, these mice weighing 25-27 g. were used in the test. The present compounds to be tested, were suspended in a 10% gum arabic solution and administered orally […]. body weight to mice. Each dose level was given to a group of ten animals and the survivors were kept under observation for 6 days. The numbers of dead animals were counted and the LD50 values in mg./kg. body weight were calculated by the method of Litchfield-Wilcoxon.

Data set [1] relates to passive cutaneous anaphylaxis (PCA) mediated by homocytotropic antibodies (HTA). Briefly: antiallergic activity: passive cutaneous anaphylaxis (PCA) mediated by homocytotropic antibodies (HTA) in rats. The class given is in vivo, rat (Wister). Particulars: Rattus norvegicus, given orally 30 minutes before antigen challenge, minimum dose that decreased statistically significantly the amount of leaked dye comparing with control, 72 hr. PCA, read-out: MED. As to the method:
With respect to the 3-(1H-tetrazol-5-yl)-coumarin derivatives obtained in Examples 1 to 12, there was tested antiallergic activity concerning passive cutaneous anaphylaxis (PCA) mediated by homocytotropic antibodies (HTA) in rats.
2,4-Dinitrophenyl-coupled ascaris extract (DNP-As) used as antigen, was prepared according to the methods of Strejan et al [cf. J. Immunol., Vol. 98, 893(1967)] and Eisen [cf. J. Amer. Chem. Soc., Vol. 75, 4593(1953)]. Antisera containing HTA were prepared in rats according to the method of Tada and Okumura [cf, J. Immunol., Vol. 106, 1002(1971)] as follows:
Wister rats weighing 180 to 200 g. were splenectomized and several days later immunized by injecting into all four footpads a total of 1 mg. of DNP-As mixed with 10^10 Bordetella pertussis. After 5 days, 0.5 mg. of DNP-As alone was injected subcutaneously into the back of rats. Eight days after the first immunization, blood was collected by aortic puncture under ether anaesthesea and antisera obtained by these procedures were pooled and stored at -80° C.
The titer of the pooled autiserum was determined in rats by the 72 hr. PCA which method was described in the following item (ii), i.e. the highest dilution of antiserum producing a diameter of approximately 5 mm. was usually 1:500.
Normal wister rats weighing 140 to 160 g. were sensitized passively by injection intradermal on the shaved back skin 0.05 ml. of the diluted antisera (1:30). After 72 hours, the animals were injected intravenously 1 ml. of physiological salt solution containing 2 mg. DNP-As and 2.5 mg. Evans' blue.
The present compounds to be tested were given orally 30 minutes before antigen challenge. The animals were exsanguinated 30 minutes after challenge with the antigens and the skins were exfoliated. The intensities of PCA were evaluated by measuring the amount of leaked dye. The amount of dye leaked as a result of PCA was extracted according to the method of Harada et al [cf. Jpn.

As for `O=c1oc2c(OCCCO)cccc2cc1-c1nnn[nH]1` [Ex. 1, 8-(3-Hydroxypropoxy)-3-(1H-tetrazol-5-yl)coumarin], the LD50 at 144 h in “acute toxicity in mice” is over 2000 mg/kg.

Turning to `COCCOc1cccc2cc(-c3nnn[nH]3)c(=O)oc12` [Ex. 2, 8-(3-Oxabutoxy)-3-(1H-tetrazol-5-yl)coumarin], the LD50 at 144 h in “acute toxicity in mice” fell in the range of 1500 to 2000 mg/kg. Further, the minimal effective dose in data set [1] stood at 1.56 mg/kg.

Turning to `CCOCCOc1cccc2cc(-c3nnn[nH]3)c(=O)oc12` [Ex. 3, 8-(3-Oxapentyloxy)-3-(1H-tetrazol-5-yl)coumarin], the LD50 at 144 h in the data set “acute toxicity in mice” is 1500 mg/kg. Further, in data set [1], the minimal effective dose was determined as 0.39 mg/kg.

Compound `CCCOCCOc1cccc2cc(-c3nnn[nH]3)c(=O)oc12` [Ex. 4, 8-(3-Oxahexyloxy)-3-(1H-tetrazol-5-yl)coumarin] yielded an LD50 at 144 h in “acute toxicity in mice” of 1500 to 2000 mg/kg. For the same compound, the minimal effective dose in data set [1] was 1.56 mg/kg.

Consider `CC(C)OCCOc1cccc2cc(-c3nn[nH]n3)c(=O)oc12` [Ex. 5], for which the LD50 at 144 h in “acute toxicity in mice” was 1500 mg/kg. Further, the minimal effective dose in data set [1] amounted to 6.25 mg/kg.

On to `CCCCOCCOc1cccc2cc(-c3nnn[nH]3)c(=O)oc12` [Ex. 6, 8-(3-Oxaheptyloxy)-3(1H-tetrazol-5-yl)coumarin], for which, in “acute toxicity in mice”, the LD50 at 144 h was over 2000 mg/kg. Further, the minimal effective dose in data set [1] was 6.25 mg/kg.

`CC(C)COCCOc1cccc2cc(-c3nnn[nH]3)c(=O)oc12` [Ex. 7, 8-(5-Methyl-3-oxahexyloxy)-3-(1H-tetrazol-5-yl)coumarin] displayed an LD50 at 144 h in “acute toxicity in mice” of over 2000 mg/kg. For the same compound, in data set [1], the minimal effective dose came out at 6.25 mg/kg.

As to `CCOCCCOc1cccc2cc(-c3nnn[nH]3)c(=O)oc12` [Ex. 8, 8-(4-Oxahexyloxy)-3-(1H-tetrazol-5-yl)coumarin], the LD50 at 144 h in “acute toxicity in mice” was over 2000 mg/kg. The minimal effective dose in data set [1] amounted to 6.25 mg/kg.

In the data set “acute toxicity in mice”, `CCOCCCCOc1cccc2cc(-c3nnn[nH]3)c(=O)oc12` [Ex. 9, 8-(5-Oxaheptyloxy)-3-(1H-tetrazol-5-yl)coumarin] came in with an LD50 at 144 h of over 2000 mg/kg. Further, the minimal effective dose in data set [1] was determined as 0.39 mg/kg.

For the compound `C=CCOCCOc1cccc2cc(-c3nnn[nH]3)c(=O)oc12` [Ex. 10, 8-(3-Oxa-5-hexenyloxy)-3-(1H-tetrazol-5-yl)-coumarin], the LD50 at 144 h in the data set “acute toxicity in mice” was 1500 to 2000 mg/kg. Also, the minimal effective dose in data set [1] amounted to 6.25 mg/kg.

`CCOCCOCCOc1cccc2cc(-c3nn[nH]n3)c(=O)oc12` [Ex. 11, 8-(3,6-Dioxaoctyloxy)-3-(1-H-tetrazol-5-yl)-coumarin] had an LD50 at 144 h in the data set “acute toxicity in mice” of over 2000 mg/kg. Also, the minimal effective dose in data set [1] came out at 1.56 mg/kg.

Turning to `O=c1oc2c(OCCOc3ccccc3)cccc2cc1-c1nnn[nH]1` [Ex. 12, 8-(2-Phenoxyethyloxy)-3-(1H-tetrazol-5-yl)-coumarin], the 50% lethal dose (LD50) at 144 h in “acute toxicity in mice” is over 2000 mg/kg. The minimal effective dose in data set [1] was 1.56 mg/kg.
